± gives the standard deviation of the averaged measurements.
Legend:
Assay in all cases: control-subtracted net OSN firing rate; higher = stronger neuronal activation
S. montana pb1a-like = tested on: S. montana pb1a-like
Procedure: (§1)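 Dose-response single sensillum recordings from pb1a (D. melanogaster Canton-S) and pb1a-like (Scaptomyza) maxillary palp OSNs. Odorants were given at 10^-5 to 10^-2 vol/vol in mineral oil (γ-hexalactone in DMSO) as 1 s pulses. The read-out is the control-subtracted net spikes/s in a 0.5 s window.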

S. hsui pb1a-like = tested on: S. hsui pb1a-like
Procedure: as §1

Canton-S pb1a = tested on: Canton-S pb1a
Procedure: as §1

S. flava pb1a-like = tested on: S. flava pb1a-like
Procedure: as §1

S. pallida pb1a-like = tested on: S. pallida pb1a-like
Procedure: as §1

[1] = odorant dilution (vol/vol): 10^-2
[2] = odorant dilution (vol/vol): 10^-3
[3] = odorant dilution (vol/vol): 10^-4
[4] = odorant dilution (vol/vol): 10^-5

SMILES | control-subtracted net OSN firing rate (S. montana pb1a-like; [1]) [spikes/s] | control-subtracted net OSN firing rate (S. montana pb1a-like; [2]) [spikes/s] | control-subtracted net OSN firing rate (S. montana pb1a-like; [3]) [spikes/s] | control-subtracted net OSN firing rate (S. montana pb1a-like; [4]) [spikes/s] | control-subtracted net OSN firing rate (S. hsui pb1a-like; [1]) [spikes/s] | control-subtracted net OSN firing rate (S. hsui pb1a-like; [2]) [spikes/s] | control-subtracted net OSN firing rate (S. hsui pb1a-like; [3]) [spikes/s] | control-subtracted net OSN firing rate (S. hsui pb1a-like; [4]) [spikes/s] | control-subtracted net OSN firing rate (Canton-S pb1a; [1]) [spikes/s] | control-subtracted net OSN firing rate (Canton-S pb1a; [2]) [spikes/s] | control-subtracted net OSN firing rate (Canton-S pb1a; [3]) [spikes/s] | control-subtracted net OSN firing rate (Canton-S pb1a; [4]) [spikes/s] | control-subtracted net OSN firing rate (S. flava pb1a-like; [1]) [spikes/s] | control-subtracted net OSN firing rate (S. flava pb1a-like; [2]) [spikes/s] | control-subtracted net OSN firing rate (S. flava pb1a-like; [3]) [spikes/s] | control-subtracted net OSN firing rate (S. flava pb1a-like; [4]) [spikes/s] | control-subtracted net OSN firing rate (S. pallida pb1a-like; [1]) [spikes/s] | control-subtracted net OSN firing rate (S. pallida pb1a-like; [2]) [spikes/s] | control-subtracted net OSN firing rate (S. pallida pb1a-like; [3]) [spikes/s] | control-subtracted net OSN firing rate (S. pallida pb1a-like; [4]) [spikes/s]
CCC/C=C/C=O [trans-2-hexenal] | 187 ± 11 | 156 ± 23 | 72 ± 19 | 26.7 ± 4.8 | 130 ± 48 | 55.7 ± 31 | 9 ± 11 | 2.67 ± 11 | 121 ± 35 | 34.7 ± 14 | 5 ± 3.5 | -3 ± 6.4 | 169 ± 30 | 159 ± 33 | 136 ± 33 | 58.6 ± 19 | 145 ± 31 | 119 ± 40 | 26.4 ± 24 | 5.78 ± 13
CCCC(=O)OCC [ethyl butyrate] | 236 ± 60 | 150 ± 70 | 42.5 ± 25 | 7.5 ± 3.5 | 150 ± 38 | 118 ± 43 | 46 ± 21 | 11 ± 22 | 211 ± 10 | 209 ± 12 | 76.3 ± 41 | 12.9 ± 4.5 | 208 ± 60 | 170 ± 59 | 52.8 ± 54 | 2 ± 7.4 | 142 ± 26 | 135 ± 24 | 111 ± 39 | 20.2 ± 19
CCCCN=C=S [butyl isothiocyanate] | 124 ± 14 | 42.3 ± 22 | 10 ± 14 | 0.667 ± 9.1 |  |  |  |  |  |  |  |  | 146 ± 29 | 65.7 ± 36 | 21.7 ± 10 | -4 ± 10 |  |  |  | 
C=CCN=C=S [allyl isothiocyanate] | 168 ± 26 | 118 ± 33 | 58.3 ± 35 | 20 ± 9.4 | 132 ± 49 | 51.2 ± 27 | 6.75 ± 6 | -1 ± 12 | 153 ± 42 | 27 ± 7.3 | 2 ± 5.9 | -3.33 ± 5 | 169 ± 40 | 117 ± 38 | 50 ± 28 | 11.4 ± 14 | 142 ± 25 | 115 ± 44 | 33.8 ± 19 | 5.56 ± 14
CCC1CCC(=O)O1 (centres undefined) [γ-hexalactone] | 186 ± 42 | 93.7 ± 28 | 21.3 ± 13 | -2 ± 9.8 | 163 ± 14 | 128 ± 14 | 53 ± 17 | 43.7 ± 11 | 286 ± 56 | 217 ± 84 | 33 ± 18 | 22.7 ± 15 | 182 ± 37 | 42.6 ± 26 | 3.14 ± 9.9 | -3.43 ± 8 | 152 ± 15 | 98.7 ± 50 | 34.3 ± 35 | 11.3 ± 15
CC(C)CN=C=S [isobutyl isothiocyanate] | 164 ± 20 | 84.7 ± 14 | 17.3 ± 5.9 | 2 ± 5.8 |  |  |  |  |  |  |  |  | 179 ± 22 | 93 ± 16 | 23.3 ± 7.5 | 5.67 ± 4.6 |  |  |  | 
CCC(C)N=C=S (centres undefined) [sec-butyl isothiocyanate] | 72.7 ± 9.3 | 13.3 ± 9.4 | -0.667 ± 7.1 | 0.667 ± 4.8 |  |  |  |  |  |  |  |  | 76.6 ± 22 | 19.7 ± 11 | 3.14 ± 6.4 | -2.57 ± 5.9 |  |  |  | 
